Each molecule was assayed on production of kynurenine in KATO-III cells (assay: Inhibitory activity on the production of kynurenine (IFN-γ-treated KATO-III cells, kynurenine in the culture medium quantified by absorbance at 480 nm)). Details: test compound at 10 μmol/L, human gastric cancer cell line KATO-III, 96 hours, read-out: inhibition rate (production of kynurenine).
Type: cell-based
Method: This assay was performed by a modification of the method described in J. Biol. Chem., vol. 263, pp. 2041-2048 (1988). For culture of the human gastric cancer cell line KATO-III, RPMI 1640 (GIBCO, 11875) supplemented with 10 volt FBS (GIBCO, 10091-148, lot. 665285) was used. One μL of a test substance in a DMSO solution was diluted with 199 μL of the culture medium and placed in wells of a 384-well plate (10 μL/well). Next, IFN-γ (Sigma, 1-3265) was added to the culture medium to a concentration of 31.25 ng/mL, and KATO-III cells were suspended at 50,000 cells/mL in the culture medium. Forty μL of the suspension was added to each well (2,000 cells/well) and incubated under a 5% CO2 atmosphere at 37° C. for 96 hours. The final concentration of DMSO was limited to 0.1 volt or less so that DMSO itself may not affect the kynurenine concentration measured by this assay. After the incubation, 10 μL of a 30 w/vt aqueous trichloroacetic acid solution was added to each well, and incubation was performed at 65° C. for 30 minutes. The plate was centrifuged at 2,500×g for 5 minutes and 15μL of the supernatant in each well was transferred into another 384-well plate. To the transferred supernatant, 15 μL of a 2 w/vt solution of p-dimethylaminobenzaldehyde in acetic acid was added, incubation was performed at 65° C. for 20 minutes and the absorbance was measured at 480 nm.
Sample: the absorbance value of the well to which a DMSO solution containing a test substance was added and in which the cells were treated with IFN-γ.
Blank: the absorbance value of the well to which DMSO not containing a test substance was added and in which the cells were treated with IFN-γ.
Control: the absorbance value of the well to which DMSO not containing a test substance was added and in which the cells were not treated with IFN-γ.
In this assay, expression of IDO in KATO-III cells is induced by IFN-γ treatment and kynurenine in the culture medium is quantified. The kynurenine concentration in a culture medium is known to increase in proportion to the enzymatic activity of intracellular IDO (for example, J. Biol. Chem., vol. 263, pp. 2041-2048 ([…])). […] The production of kynurenine is known to be inhibited by IDO inhibitors (for example, J. Clin. Invest., vol. 117, No. 5, pp. 1147-1154 […]), and thus it is speculated that Compounds (I) also have an inhibitory effect on IDO.

SMILES	inhibition at 10 µM
CCCCC(Oc1nc2ccccc2nc1NS(=O)(=O)CCC)c1cccnc1 (stereo not drawn) [Compound 11, N-(3-(1-(pyridin-3-yl)pentyloxy)quinoxalin-2-yl)propane-1-sulfonamide]	≥ 80%
CCCS(=O)(=O)Nc1nc2ccccc2nc1OC(c1ccc(-c2cnn(C)c2)nc1)C(F)(F)F (stereo not drawn) [Compound 32, N-(3-(2,2,2-trifluoro-1-(6-(1-methyl-1H-pyrazol-4-yl)pyridin-3-yl)ethoxy)quinoxalin-2-yl)propane-1-sulfonamide]	≥ 80%
CCCS(=O)(=O)Nc1nc2ccccc2nc1OC(c1ccnc(N(C)C(C)=O)c1)C(F)(F)F (stereo not drawn) [Compound 49, N-methyl-N-(4-(2,2,2-trifluoro-1-(3-(propylsulfonamido)quinoxalin-2-yloxy)ethyl)pyridin-2-yl)acetamide]	≥ 80%
CCCS(=O)(=O)Nc1nc2ccccc2nc1OC(c1ccc(-c2cnn(C)n2)nc1)C(F)(F)F (stereo not drawn) [Compound 64A, N-(3-(2,2,2-trifluoro-1-(6-(2-methyl-2H-1,2,3-triazol-4-yl)pyridin-3-yl)ethoxy)quinoxalin-2-yl)propane-1-sulfonamide]	≥ 80%
CCCS(=O)(=O)Nc1nc2ccccc2nc1OC(c1ccc2c(c1)OCCO2)C(F)(F)F (stereo not drawn) [Compound 48, N-(3-(1-(2,3-dihydrobenzo[b][1,4]dioxin-6-yl)-2,2,2-trifluoroethoxy)quinoxalin-2-yl)propane-1-sulfonamide]	≥ 80%
CCCS(=O)(=O)Nc1nc2ccccc2nc1OC(c1cnc(C(C)=O)s1)C(F)(F)F (stereo not drawn) [Compound 71, N-(3-(1-(2-acetylthiazol-5-yl)-2,2,2-trifluoroethoxy)quinoxalin-2-yl)propane-1-sulfonamide]	≥ 80%
CCCS(=O)(=O)Nc1nc2ccccc2nc1OC(c1ccccc1)c1cccnc1 (stereo not drawn) [Compound 23, N-(3-(phenyl(pyridin-3-yl)methoxy)quinoxalin-2-yl)propane-1-sulfonamide]	≥ 80%
CCCS(=O)(=O)Nc1nc2ccccc2nc1OC(c1ccccc1)c1ccc[n+]([O-])c1 (stereo not drawn) [Compound 24, 3-(phenyl(3-(propylsulfonamido)quinoxalin-2-yloxy)methyl)pyridine 1-oxide]	≥ 80%
CCCCS(=O)(=O)Nc1nc2ccccc2nc1OC(c1ccc([S+](C)[O-])nc1)C(F)(F)F (stereo not drawn) [Compound 41, N-(3-(2,2,2-trifluoro-1-(6-(methylsulfinyl)pyridin-3-yl)ethoxy)quinoxalin-2-yl)butane-1-sulfonamide]	≥ 80%
CCCS(=O)(=O)Nc1nc2cc(I)ccc2nc1OC(c1cccnc1)C(F)(F)F (stereo not drawn) [Compound 77, N-(7-iodo-3-(2,2,2-trifluoro-1-(pyridin-3-yl)ethoxy)quinoxalin-2-yl)propane-1-sulfonamide]	≥ 80%
CCCS(=O)(=O)Nc1nc2ccccc2nc1OC(c1cnc(SC)nc1)C(F)(F)F (stereo not drawn) [Compound 55, N-(3-(2,2,2-trifluoro-1-(2-(methylthio)pyrimidin-5-yl)ethoxy)quinoxalin-2-yl)propane-1-sulfonamide]	≥ 80%
CCCS(=O)(=O)Nc1nc2ccccc2nc1OC(c1ccncc1)C(F)(F)F (stereo not drawn) [Compound 42, N-(3-(2,2,2-trifluoro-1-(pyridin-4-yl)ethoxy)quinoxalin-2-yl)propane-1-sulfonamide]	≥ 80%
COCCS(=O)(=O)Nc1nc2ccccc2nc1OC(c1ccc(-c2cnco2)nc1)C(F)(F)F (stereo not drawn) [Compound 73, 2-methoxy-N-(3-(2,2,2-trifluoro-1-(6-(oxazol-5-yl)pyridin-3-yl)ethoxy)quinoxalin-2-yl)ethanesulfonamide]	≥ 80%
CCCS(=O)(=O)Nc1nc2ccccc2nc1OC(c1cc[n+]([O-])cc1)C(F)(F)F (stereo not drawn) [Compound 43, 4-(2,2,2-trifluoro-1-(3-(propylsulfonamido)quinoxalin-2-yloxy)ethyl)pyridine 1-oxide]	≥ 80%
CCCS(=O)(=O)Nc1nc2ccccc2nc1OC(c1ccc[n+]([O-])c1)C(C)(C)F (stereo not drawn) [Compound 8, 3-(2-fluoro-2-methyl-1-(3-(propylsulfonamido)quinoxalin-2-yloxy)propyl)pyridine 1-oxide]	≥ 80%
CCCS(=O)(=O)Nc1nc2ccccc2nc1OC(c1ccnc(-n2ccnc2)c1)C(F)(F)F (stereo not drawn) [Compound 54, N-(3-(1-(2-(1H-imidazol-1-yl)pyridin-4-yl)-2,2,2-trifluoroethoxy)quinoxalin-2-yl)propane-1-sulfonamide]	≥ 80%
CCCS(=O)(=O)Nc1nc2ccccc2nc1OC(c1ccc(-c2cnco2)nc1)C(F)(F)F (stereo not drawn) [Compound 65, N-(3-(2,2,2-trifluoro-1-(6-(oxazol-5-yl)pyridin-3-yl)ethoxy)quinoxalin-2-yl)propane-1-sulfonamide]	≥ 80%
CCCS(=O)(=O)Nc1nc2ccccc2nc1OC(c1cccnc1)C1(C)CC1 (stereo not drawn) [Compound 13, N-(3-((1-methylcyclopropyl)(pyridin-3-yl)methoxy)quinoxalin-2-yl)propane-1-sulfonamide]	≥ 80%
CCCS(=O)(=O)Nc1nc2ccccc2nc1OC(CC)c1cccnc1 (stereo not drawn) [Compound 15, N-(3-(1-(pyridin-3-yl)propoxy)quinoxalin-2-yl)propane-1-sulfonamide]	≥ 80%
COCCS(=O)(=O)Nc1nc2ccccc2nc1OC(c1ccc(-n2ccnc2C)nc1)C(F)(F)F (stereo not drawn) [Compound 69, 2-methoxy-N-(3-(2,2,2-trifluoro-1-(6-(2-methyl-1H-imidazol-1-yl)pyridin-3-yl)ethoxy)quinoxalin-2-yl)ethanesulfonamide]	≥ 80%
CCCCS(=O)(=O)Nc1nc2ccccc2nc1OC(c1cc[n+]([O-])cc1)C(F)(F)F (stereo not drawn) [Compound 47, 4-(1-(3-(butylsulfonamido)quinoxalin-2-yloxy)-2,2,2-trifluoroethyl)pyridine 1-oxide]	≥ 80%
CCCS(=O)(=O)Nc1nc2ccccc2nc1OC(c1cccnc1)C(F)F (stereo not drawn) [Compound 17, N-(3-(2,2-difluoro-1-(pyridin-3-yl)ethoxy)quinoxalin-2-yl) propane-1-sulfonamide]	≥ 80%
CC(C)CS(=O)(=O)Nc1nc2ccccc2nc1OC(c1ccc2nccn2c1)C(F)(F)F (stereo not drawn) [Compound 29, 2-methyl-N-(3-(2,2,2-trifluoro-1-(imidazo[1,2-a]pyridin-6-yl)ethoxy)quinoxalin-2-yl)propane-1-sulfonamide]	≥ 80%
C#Cc1ccc2nc(OC(c3cccnc3)C(F)(F)F)c(NS(=O)(=O)CCC)nc2c1 (stereo not drawn) [Compound 79, N-(7-ethynyl-3-(2,2,2-trifluoro-1-(pyridin-3-yl)ethoxy)quinoxalin-2-yl)propane-1-sulfonamide]	≥ 80%
CCCS(=O)(=O)Nc1nc2ccccc2nc1OC(c1ccc(-c2noc(C)n2)nc1)C(F)(F)F (stereo not drawn) [Compound 66, N-(3-(2,2,2-trifluoro-1-(6-(5-methyl-1,2,4-oxadiazol-3-yl)pyridin-3-yl)ethoxy)quinoxalin-2-yl)propane-1-sulfonamide]	≥ 80%
CCCS(=O)(=O)Nc1nc2cc(C#N)ccc2nc1OC(c1cccnc1)C(F)(F)F (stereo not drawn) [Compound 78, N-(7-cyano-3-(2,2,2-trifluoro-1-(pyridin-3-yl)ethoxy)quinoxalin-2-yl)propane-1-sulfonamide]	≥ 80%
CCCS(=O)(=O)Nc1nc2ccccc2nc1OC(c1ccc(CO)nc1)C(F)(F)F (stereo not drawn) [Compound 31, N-(3-(2,2,2-trifluoro-1-(6-(hydroxymethyl)pyridin-3-yl)ethoxy)quinoxalin-2-yl)propane-1-sulfonamide]	≥ 80%
